# Experimental data: patent US7332482B2, “Method for treating benign prostatic hyperplasia” (BioXell S.p.A., priority 2003, dated 2008)
# Entries after “also recorded” stand apart in the source; their conditions may differ.
# Columns and labels:
# [1] = Serum calcium measurement in rats; type: in vivo, rat; settings: for calcemia: T-replaced castrated rats
# Protocol: Male Sprague Dawley rats (28 days old) were purchased from Charles River Laboratories (Calco, Lecco, Italy). All animal experimentation described was conducted in accord with accepted standards of animal care. Castration was performed via the scrotal route under ketamine/xylazine anaesthesia.
# Serum calcium levels were measured with a commercially available colorimetric assay (Sigma), according to the manufacturers' instructions.
# [2] = test system: human bladder cells; test: Bladder cell growth, basal and testosterone-stimulated; type: cell-based
# [3] = test system: rat ventral prostate; test: Ventral prostate growth in intact adult rats
# Text: Rat ventral prostate glands were rapidly excised out, weighed and quickly frozen in dry ice.
# [4] = test system: bladder; test: Bladder outlet obstruction (BOO) rat model, cystometry and bladder weight; type: in vivo; settings: BOO rats, 150 μg/Kg daily, 2 weeks
# Protocol: • Female Sprague-Dawley rats, weighing 200-250 g 1.2. Grouping • Group A: BOO rats, treated with Compound A over 2 weeks, beginning at day 1 after creation of the obstruction (n=12) • Group B: BOO rats, treated with vehicle over 2 weeks, beginning at day 1 after creation of the obstruction (n=12) • Group C: Sham operated rats, treated with Compound A over 2 weeks, beginning at day 1 after surgery (n=12) 1.3. Studies: • a) Cystometry (˜18 hours after last administration of the drug/vehicle, 12 hours after removal of the obstructing ligature) under conscious conditions. • b) Measurements of bladder weight • c) In vitro investigations 2. Methods 2.1. Bladder Outlet Obstruction (BOO):
# The bladder and urethrovesical junction were exposed through a lower abdominal midline incision. A 0.9 mm metal rod was placed alongside the proximal urethra and a 3-0 silk ligature was tied tightly around the urethra and the rod, which was consequently be removed. Sham surgery was be performed accordingly, without placing the ligature. After 13 days the ligature was be removed and a catheter was be inserted into the bladder dome and tunneled subcutaneously.
# The following morning after insertion of the catheter, the cystometric investigation was performed without any anesthesia or restraint in a metabolic cage. The amount of voided urine was measured by means of a fluid collector, connected to a force displacement transducer. The bladder was continuously filled with saline at room temperature. The catheter was also connected to a pressure transducer. After a stabilization period of 30-60 minutes, when reproducible voiding patterns are achieved, the following parameters were recorded over a period of 30 minutes: Basal bladder pressure, micturition pressure, threshold pressure, micturition interval and volume, and non-voiding contractions. The amount of residual urine was investigated manually 3 times, at the end of the cystometry. Bladder capacity was calculated based on the measured values.
# The validated bladder outlet obstruction rat model described above was used to test the ability of Compound A to control and treat bladder dysfunction. The objective was to evaluate whether a vitamin D3 analogue (1-alpha-fluoro-25-hydroxy-16,23e-diene-26,27-bishomo-20-epi-cholecalciferol—compound “A”) at the dose of 150 μg/Kg/daily) can prevent bladder hypertrophy and bladder dysfunction such as bladder overactivity.
# In this model a ligature was surgically placed around the outlet of the catheterized bladder, so that when the catheter was removed, the bladder experienced increased urethral resistance. The rats underwent continuous cystometry to evaluate bladder function. In addition the contractile properties of isolated bladder preparation in response to nerve stimulation and exogenous stimuli in vitro were investigated under electrical field stimulation (EFS).
# The following cystometric parameters were investigated (see FIGS. 12-16): • micturition pressure (the maximum bladder pressure during micturition), • bladder capacity (residual volume after voiding plus the volume of saline infused to induce the void) • micturition volume (volume of the expelled urine) • residual urine (bladder capacity minus micturition volume) and • frequency and amplitude of spontaneously occurring changes intravesical pressure (non-voiding contractions).
# [5] = test system: rat ventral prostate; test: Clusterin expression (Northern, immunohistochemistry) and TUNEL in rat ventral prostate; type: in vivo
# Protocol: Total RNA was extracted using RNAFast from Molecular System (San Diego, Calif.). Blotting, labelling, hybridization conditions and probes (rat clusterin 1.5 Kb full-length cDNA and GAPDH 1.2 Kb full-length cDNA) were performed according to the reported procedures (Bettuzzi et al, Biochemical Journal, (1989), 257, p 293-296 and Marinelli et al, Biochemistry and Cell Biology, (1994), 72, p 515-521). Quantitation of the autoradiograms was obtained by densitometric scanning using an LKB Ultrascan XL densitometer.
# All the cryostatic sections obtained from controls and treated rats were processed in parallel as previously described (Astancolle et al, Journal of Endocrinology, (2000), 167, p 197-204). For every experimental condition, 3 alternate sections from 3 different rat prostates were examined. […] Counterstaining was performed with haematoxylin, and cover slips were mounted with Eukitt (O. Kindler GmbH & Co, Germany). Digital high-magnification colour images were acquired by a CCD camera through the microscope.
# DNA fragmentation in prostate cryostatic sections, assessed by terminal deoxynucleotidyl transferase (TdT)-mediated dUTP nick end-labelling (TUNEL), was performed using the In Situ Cell Death Detection Kit (POD, Roche) as recommended by the manufacturer. TUNEL positive apoptotic nuclei were documented by digital high-magnification colour images acquired by a CCD camera through the microscope. Counterstaining was performed with eosin, and cover slips were mounted with Eukitt (O Kindler GmbH & Co, Germany).
structure (smiles),measurement,setting,value
"C=C1/C(=C\C=C2/CCC[C@]3(C)C([C@@H](C)C/C=C/C(O)(CC)CC)=CC[C@@H]23)C[C@@H](O)C[C@@H]1F [Compound A, 1-alpha-fluoro-25-hydroxy-16,23E-diene-26,27-bishomo-20-epi-cholecalciferol]",calcemia,[1]; 10 μg/Kg,10.16 ± 0.24 mg/dL
same,calcemia,[1]; 30 μg/Kg,9.87 ± 0.15 mg/dL
same,calcemia,[1]; 100 μg/Kg,10.55 ± 0.18 mg/dL
same,calcemia,[1]; 300 μg/Kg,10.85 ± 0.1 mg/dL
same,other side effects,"[1]; all rat protocols, oral",No other discernible side effects
same,hypercalcemia,"[1]; all rat protocols, oral 10-300 μg/Kg",very modest hypercalcemia only at the highest dose tested
same,inhibition of basal and testosterone-stimulated growth of bladder cells,[2],effective in inhibiting
same,effect on bladder cell growth compared with finasteride,"[2]; T 10 nM, F 1 nM",significantly greater than that of the anti-androgen finasteride
same,maximal reduction of ventral prostate weight,"[3]; one month oral, 300 μg/Kg",30%
same,effect on ventral prostate weight,"[3]; one-month oral treatment, 10-300 μg/Kg",significantly decreased
same,bladder weight,[4],slight decrease
same,micturition pressure,[4],significant differences versus vehicle
same,residual urine,[4],absent
same,spontaneous non-voiding contraction amplitude,[4],significant differences versus vehicle
same,spontaneous non-voiding contraction frequency,[4],significant differences versus vehicle
same,DNA fragmentation / apoptosis in ventral prostate (TUNEL),"[5]; castrated T-supplemented rats, 100 and 300 μg/Kg, 9 administrations",induced an evident nuclear fragmentation in epithelial and stromal cells; also recorded: induced massive apoptosis in the majority of epithelial and stromal cells
same,"clusterin staining and apoptosis in prostate (immunohistochemistry, TUNEL)","[5]; intact adult rats, Compound A 10, 30, 100 μg/Kg, finasteride 40 mg/Kg",induced clusterin expression; also recorded: dose-dependently stained for clusterin
same,clusterin mRNA expression in ventral prostate (Northern),"[5]; intact rats, one month, 30 and 100 μg/Kg",induced a sustained increase
same,clusterin mRNA expression in ventral prostate (Northern),"[5]; orchidectomized T-supplemented rats, Compound A 300 and 100 μg/Kg, F 40 mg/Kg",partially blunted the T-induced down-regulation of clusterin gene expression
